Read-outs that look alike come from different tables or passages of the source.
Tests used:
Format in all cases: cell-based, human
[1] = test system: NAD(P) synthesis from niacinamide in HepG2 cells; assay: Determination of NAD(P) synthesis from [14C]niacinamide in HepG2 cells
Text: The effect of the compounds on the synthesis of NAD(P) starting from niacinamide was investigated using for example the tumor cell line HepG2 according to the technique described in the experimental part below.
The inhibition of the NAD(P) synthesis from niacinamide by these compounds was investigated in HepG2 cells as described in the section “Material and Methods”. The compounds of Table 3 a were used at a concentration of 10^−5 M. The compounds of Table 3 b were used at concentrations of at least 10^−5 M, except for Doxorubicin where the concentration was 0.3×10^−5 M. As a control, vehicle treated or untreated cells were used.
In these experiments, a pre-incubation period of 17 hrs with the compounds was used, but it turned out that the pre-incubations period could be shortened, for example to 2 hrs, or skipped completely without affecting the inhibition profile. […] Similar results were obtained with the other specific compounds.
For the detection of specific inhibitors of niacinamide mononucleotide formation the following screening assay is especially useful which comprises the following steps: incubating cultured cells selected from HepG2 cells, U-87 MG cells, MCF-7 M1 cells, Caki-1 cells, HL-60 cells, PC3 cells, U-373 MG cells, A549 cells and KG-1a cells in the presence of [^14C]niacinamide and a compound to be tested for its activity to inhibit the cellular formation of niacinamide mononucleotide; effecting lysis of the cells; isolating and separating the [^14C]-labeled compounds and measuring the amount of formed labeled niacinamide mononucleotide, NAD and NADP. More concretely, cultured cells are seeded in a defined density in culture dishes, followed by incubation in the presence of a test compound and by the addition of [^14C]niacinamide for about 0.1 to 6 hrs. The cells are then lysed with perchloric acid and the resulting extract is neutralized. Finally, the [^14C]-labeled compounds are separated by thin-layer chromatography on cellulose matrices followed by UV detection and autoradiography. Non-radioactive niacinamide derivatives are used as standards. This assay allows simple and effective screening and selection of the compounds according to the invention.
Determination of NAD(P) Synthesis from [^14C]Niacinamide
The cells were detached from 75 cm^2 flasks by removing the growth medium and adding 3 ml trypsin/EDTA solution to each flask. After about 5 minutes incubation at 37° C., when the cells were detached from the surface of the dishes, trypsinization was stopped by adding 3 ml Richter's IMEM-ZO medium containing 10% FCS. The cells were suspended by repeated pipetting. For predilution, an aliquot of 20 μl was added to 10 ml Casyton isotonic solution (No. 043-90037P, Schärfe System, Reutlingen, Germany) using a Sysmex Auto Dilutor Type AD-260 (Toa, Medical Electronics Co. Ltd., Kobe, Japan). The cell number was determined by electronic cell volume measurements and counting with a CASY 1 Cell Counter+Analyzer System, Model TTC (Schärfe System, Reutlingen, Germany) equipped with a 60 μm capillary. Following dilution in IMEM-ZO containing 10% FCS, the cells were finally seeded at a density of 4×10^6/10 ml per sample in Ø 10 cm tissue culture dishes (Greiner, Frickenhausen, Germany) and incubated at 37° C. in a humidified atmosphere of 5% CO2 in air.
After one day, when the cells were adherent to the dishes, the cultures were replenished with IMEM-ZO containing 5% FCS plus the test compound or the vehicle. […] The cells were then incubated at 37° C. for 17 hours in a humidified atmosphere of 5% CO2 in air. This preincubation period is not necessary to achieve a distinct inhibitory action of the compounds and can be shortened for example to 2 or 0 hours. After this period of time, the medium was again discarded and 4 ml HEPES-buffered IMEM-ZO containing the test compound or the vehicle and 0.5 μCi/ml [^14C]niacinamide were added to each culture for an additional 5 hours at 37° C. and 100% humidity. […]

Hep G2 cells = assay: Nicotinamide Reversibility Assay / cell growth inhibition of Hep G2 cells (SRB, six days); details: for Reversal by Niacinamide: Hep G2 cell growth inhibition with added nicotinamide; for IC50: Homo sapiens, HepG2, 144 h, read-out: Cell growth inhibition IC50-values [μM] Hep G2
Experimental: Nicotinamide Reversibility Assay
Hep G2 cells derived from a human liver carcinoma were plated at a density of 20,000 cells/ml in 12-well plastic dishes. Cultivation occurred in Richters IMEM-ZO nutrient medium with 5% fetal calf serum (FCS) in a tissue culture incubator with a gas mixture of 5% CO2 and 95% air at a temperature of 37° C. One day after plating, the culture medium was aspirated from the cells and replaced by fresh medium which contained the respective concentrations of the test compounds and where applicable of the nicotinamide. For the individual concentrations and the controls without test compounds, three-fold batches were done for each. Three days after the beginning of treatment, the medium was again renewed with the test compounds and where applicable the nicotinamide. After six days of compound incubation, the test was ended and the protein amount in the individual wells was determined with the sulforhodamin-B-method (according. to P. Skehan et al.: New Colorimetric Cytotoxicity Assay for Anticancer-Drug Screening. J. Natl. Cancer Inst. 82: 1107-1112, 1990). The IC50-values were taken from the dose-response curves and given as a comparative measurement for the activity of the test compounds.

HepG2 cells = assay: Cell growth under high-density conditions (SRB assay), delayed cell death (DCD); details: high density HepG2 cultures; for Tox. (effective (toxic) concentration) in DCD: toxic compounds, rapid decrease in cell numbers; for minimal effective concentration: Homo sapiens
[2] = Table 3b, at least 10^-5 M, control 374.00
[3] = Table 3b, toxic compounds at at least 10^-5 M, control 531
[4] = Homo sapiens, read-out: Cellular NAD synthesis inhibition [%]
[5] = Homo sapiens, Table 3a, compound 10^-5 M, read-out: NAD(P) % of Control
[6] = Table 3a, compound 10^-5 M, 17 hrs pre-incubation, control 302.1
[7] = Table 3a, compound 10^-5 M, control 186.4
[8] = Hep G2, six days of compound incubation, SRB
[9] = minimum concentration which, despite initial growth, induced cell death below the number of initially seeded cells, Table 2

| Structure (SMILES) | inhibition at 100 µM ([1]; Homo sapiens, 100 μM, read-out: Cellular NAD synthesis inhibition [%]) | NAD(P) % of Control ([1]; Table 3b, at least 10^-5 M) | NAD(P) pmol/mg protein [1, 2] | NAD(P) pmol/10^6 cells [1, 3] | Influence of the addition of nicotinamide on the action on cell growth (FIGS. 20 to 27) (Hep G2 cells; Hep G2) | Reversal by Niacinamide (Hep G2 cells) | IC50 (Hep G2 cells) | Tox. (effective (toxic) concentration) in DCD (HepG2 cells) | inhibition at 10 µM [1, 4] | activity at 10 µM [1, 5] | NAD(P) pmol/10^6 cells [1, 6] | NAD(P) pmol/mg protein [1, 7] | IC50 (Hep G2 cells; [8]) | minimal effective concentration (HepG2 cells; Table 5) | minimal effective concentration (HepG2 cells; [9]) | inhibition at 30 µM ([1]; Homo sapiens, 30 μM, read-out: Cellular NAD synthesis inhibition [%]) | inhibition at 3 µM ([1]; Homo sapiens, 3 μM, read-out: Cellular NAD synthesis inhibition [%]) | activity at 3 µM ([1]; Homo sapiens, Table 3b, 0.3×10^-5 M, read-out: NAD(P) % of Control) |
| --- | --- | --- | --- | --- | --- | --- | --- | --- | --- | --- | --- | --- | --- | --- | --- | --- | --- | --- |
| NC(=O)c1csc([C@@H]2O[C@H](CO)[C@@H](O)[C@H]2O)n1 [Tiazofurin, reference compound] | 22% | 78.1% | 292.30 pmol/mg protein | 414.47 pmol/10^6 cells | no measurable influence | no | 10 µM | Tox. 300 μM |  |  |  |  |  |  |  |  |  |  |
| O=C(CCCCCN1CCN(C(c2ccccc2)c2ccccc2)CC1)NCCc1cccnc1 [Compound K22265, 6-(4-benzhydryl-piperazine-1-yl)-hexanoic acid-(2-pyridine-3-yl-ethyl)-amide] |  |  |  |  |  |  |  |  | 98% | 2.4% | 7.3 pmol/10^6 cells | 4.5 pmol/mg protein | 2 µM | 3 µM | 3 µM |  |  |  |
| S=C(NCCCCC=C(c1ccccc1)c1ccccc1)N/N=C/c1cccnc1 [Compound K22299, 1-(6,6-diphenyl-5-hexenyl)-3-(pyridine-3-yl-methylene-amino)-thiourea] |  |  |  |  |  |  |  |  | 99% | 0.5% | 1.6 pmol/10^6 cells | 1.0 pmol/mg protein | 0.1 µM | 0.3 µM | 0.3 µM |  |  |  |
| [N-]=[N+]=CC(=O)CC[C@H](N)C(=O)O [6-Diazo-5-oxo-L-norleucine, reference compound] |  | 110.5% | 413.55 pmol/mg protein | 586.39 pmol/10^6 cells | no measurable influence | no |  | Tox. 100 μM | 0% |  |  |  | 3 µM |  |  |  |  |  |
| NC(=O)c1ccc(N)nc1 [6-Aminonicotinamide, reference compound] |  | 88.0% | 329.34 pmol/mg protein | 466.98 pmol/10^6 cells |  | yes | 4 µM | Tox. 10000 μM |  |  |  |  |  |  |  | 12% |  |  |
| COc1cccc2c1C(=O)c1c(O)c3c(c(O)c1C2=O)C[C@@](O)(C(=O)CO)C[C@@H]3O[C@H]1C[C@H](N)[C@H](O)[C@H](C)O1 [Doxorubicin, reference compound] |  |  |  |  | no measurable influence | no |  |  |  |  |  |  | 0.02 µM |  |  |  | 0% | 102% |
